The values that follow come from patent US20230139171A1 (SITA Information Networking Computing UK Limited, priority 2019, published 2023).

Common to all, as to format: cell-based
The target in test [1] is T1, human TLR8 (Homo sapiens, UniProt Q9NR97).
T1 construct: host or cells: HEK-Blue cells
T1 sequence (Q9NR97 27-1041): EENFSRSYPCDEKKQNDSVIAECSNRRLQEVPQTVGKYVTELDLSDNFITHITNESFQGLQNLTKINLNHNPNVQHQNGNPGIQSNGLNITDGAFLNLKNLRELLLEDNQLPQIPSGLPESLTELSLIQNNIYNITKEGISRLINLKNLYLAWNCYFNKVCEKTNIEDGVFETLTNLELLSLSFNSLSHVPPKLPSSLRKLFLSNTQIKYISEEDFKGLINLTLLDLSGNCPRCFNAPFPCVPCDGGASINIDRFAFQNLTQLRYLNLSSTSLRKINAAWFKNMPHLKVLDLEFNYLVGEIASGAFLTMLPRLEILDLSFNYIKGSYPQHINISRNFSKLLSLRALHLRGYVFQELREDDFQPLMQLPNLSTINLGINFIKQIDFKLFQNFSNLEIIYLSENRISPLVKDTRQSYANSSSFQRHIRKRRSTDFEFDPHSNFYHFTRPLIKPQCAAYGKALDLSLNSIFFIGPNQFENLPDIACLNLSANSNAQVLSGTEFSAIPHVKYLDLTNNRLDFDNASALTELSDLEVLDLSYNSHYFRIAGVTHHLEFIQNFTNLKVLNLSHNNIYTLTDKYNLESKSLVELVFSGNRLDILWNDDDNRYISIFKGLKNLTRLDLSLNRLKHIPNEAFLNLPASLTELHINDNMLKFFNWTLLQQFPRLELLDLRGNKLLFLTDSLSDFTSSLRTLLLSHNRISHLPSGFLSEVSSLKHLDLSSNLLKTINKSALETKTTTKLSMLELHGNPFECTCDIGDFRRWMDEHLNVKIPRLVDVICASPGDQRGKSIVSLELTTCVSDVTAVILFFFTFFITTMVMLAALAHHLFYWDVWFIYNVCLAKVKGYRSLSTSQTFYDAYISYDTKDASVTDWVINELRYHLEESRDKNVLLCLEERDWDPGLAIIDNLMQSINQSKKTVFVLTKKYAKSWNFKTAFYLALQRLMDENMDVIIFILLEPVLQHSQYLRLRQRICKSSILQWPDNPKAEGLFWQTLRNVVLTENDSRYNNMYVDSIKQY
The test can be described thus: TLR8 inhibition reporter assay (HEK-Blue cells, SEAP reporter, R848 stimulation). Conditions: HEK-Blue cells overexpressing human TLR8, SEAP reporter, R848 15.9 μM; read-out: TLR8 IC50. The gist of the method:
(§1)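 Agonists used: gardiquimod 7.5 μM (TLR7), R848 15.9 μM (TLR8), ODN2006 5 nM (TLR9), added after 30 min room-temperature compound pre-treatment (0.05 nM–50 μM) of receptor-overexpressing HEK-Blue cells. SEAP reporter (NF-κB/AP-1 driven) read after 22 h at 37 °C; inhibition scaled between agonist+DMSO and reference-inhibitor wells.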

Test [2] addresses T2, human TLR7 (Homo sapiens, UniProt Q9NYK1).
T2 construct: host or cells: HEK-Blue cells
T2 sequence (Q9NYK1 27-1049): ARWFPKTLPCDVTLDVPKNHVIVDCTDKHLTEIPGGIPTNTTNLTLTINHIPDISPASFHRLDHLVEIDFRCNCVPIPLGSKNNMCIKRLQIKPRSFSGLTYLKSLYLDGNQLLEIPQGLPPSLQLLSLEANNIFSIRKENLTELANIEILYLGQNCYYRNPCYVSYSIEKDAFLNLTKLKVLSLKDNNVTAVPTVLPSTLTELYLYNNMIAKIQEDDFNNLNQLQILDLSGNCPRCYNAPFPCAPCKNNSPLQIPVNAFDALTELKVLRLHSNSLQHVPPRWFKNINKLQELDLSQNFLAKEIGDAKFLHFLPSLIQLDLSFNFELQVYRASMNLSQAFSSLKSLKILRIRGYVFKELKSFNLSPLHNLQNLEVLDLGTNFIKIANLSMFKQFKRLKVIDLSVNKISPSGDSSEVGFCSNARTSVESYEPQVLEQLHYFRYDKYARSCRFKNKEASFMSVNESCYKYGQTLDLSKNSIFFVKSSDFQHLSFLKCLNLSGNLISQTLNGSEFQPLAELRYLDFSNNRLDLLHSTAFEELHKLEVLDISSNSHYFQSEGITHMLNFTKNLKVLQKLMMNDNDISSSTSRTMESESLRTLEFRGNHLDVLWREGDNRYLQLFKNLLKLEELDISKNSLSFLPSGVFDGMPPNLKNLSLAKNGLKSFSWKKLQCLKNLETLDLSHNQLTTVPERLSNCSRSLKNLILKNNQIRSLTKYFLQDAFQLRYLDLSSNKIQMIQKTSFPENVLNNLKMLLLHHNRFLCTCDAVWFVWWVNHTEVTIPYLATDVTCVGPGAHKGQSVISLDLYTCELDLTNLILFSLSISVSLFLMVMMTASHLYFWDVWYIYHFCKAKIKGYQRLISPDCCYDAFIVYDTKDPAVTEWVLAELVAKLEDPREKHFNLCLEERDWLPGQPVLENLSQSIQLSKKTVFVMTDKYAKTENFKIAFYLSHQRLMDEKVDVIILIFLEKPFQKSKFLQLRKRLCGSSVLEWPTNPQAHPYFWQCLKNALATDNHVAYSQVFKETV
The test can be described thus: TLR7 inhibition reporter assay (HEK-Blue cells, SEAP reporter, gardiquimod stimulation). Conditions: HEK-Blue cells overexpressing human TLR7, SEAP reporter, gardiquimod 7.5 μM; read-out: TLR7 IC50. A digest of the protocol:
as §1

In test [3] the target is T3, human TLR9 (Homo sapiens, UniProt Q9NR96).
T3 construct: host or cells: HEK-Blue cells
T3 sequence (Q9NR96 26-1032): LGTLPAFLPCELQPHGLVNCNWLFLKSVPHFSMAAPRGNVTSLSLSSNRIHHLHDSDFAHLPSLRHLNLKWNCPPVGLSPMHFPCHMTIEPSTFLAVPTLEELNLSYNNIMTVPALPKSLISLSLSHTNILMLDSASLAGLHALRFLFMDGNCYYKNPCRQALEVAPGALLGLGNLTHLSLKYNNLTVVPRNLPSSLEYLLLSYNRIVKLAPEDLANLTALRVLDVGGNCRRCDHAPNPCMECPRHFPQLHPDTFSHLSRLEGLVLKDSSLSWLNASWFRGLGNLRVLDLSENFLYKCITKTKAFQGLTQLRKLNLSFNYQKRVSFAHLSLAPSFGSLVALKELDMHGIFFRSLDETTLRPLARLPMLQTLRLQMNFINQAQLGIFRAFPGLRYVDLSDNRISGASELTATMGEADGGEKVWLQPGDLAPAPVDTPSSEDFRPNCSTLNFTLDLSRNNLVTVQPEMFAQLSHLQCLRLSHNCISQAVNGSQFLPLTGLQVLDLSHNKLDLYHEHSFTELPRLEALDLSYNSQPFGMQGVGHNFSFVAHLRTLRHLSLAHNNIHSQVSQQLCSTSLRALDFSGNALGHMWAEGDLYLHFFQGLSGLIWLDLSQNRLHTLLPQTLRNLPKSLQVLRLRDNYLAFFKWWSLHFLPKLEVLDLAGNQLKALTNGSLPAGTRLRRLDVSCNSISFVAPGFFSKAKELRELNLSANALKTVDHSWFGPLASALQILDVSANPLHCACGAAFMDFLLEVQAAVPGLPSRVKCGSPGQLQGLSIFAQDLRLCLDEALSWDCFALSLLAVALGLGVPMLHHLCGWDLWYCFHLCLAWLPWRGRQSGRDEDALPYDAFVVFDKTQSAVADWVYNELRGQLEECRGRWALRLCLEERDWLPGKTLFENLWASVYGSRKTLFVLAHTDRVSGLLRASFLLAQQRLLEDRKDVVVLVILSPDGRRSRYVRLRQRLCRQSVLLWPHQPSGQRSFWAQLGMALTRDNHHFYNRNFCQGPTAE
Briefly: TLR9 inhibition reporter assay (HEK-Blue cells, SEAP reporter, ODN2006 stimulation). Particulars: HEK-Blue cells overexpressing human TLR9, SEAP reporter, ODN2006 5 nM. A digest of the protocol:
as §1

A value given as a limit tells only on which side of the number the result lay.

By IC50 is commonly meant the concentration needed to halve the response being measured.

Take `COc1cc(-c2[nH]c3sc(C4CCC(N)CC4)nc3c2C(C)C)cn2ncnc12` (single isomer, unassigned) [Example 93, 4-(6-isopropyl-5-(8-methoxy-[1,2,4]triazolo[1,5-a]pyridin-6-yl)-4H-pyrrolo[3,2-d]thiazol-2-yl)cyclohexan-1-amine]: the figures for the IC50 in test [1], in test [2] and in test [3] were 0.0156 µM, 0.00189 µM and 12 µM, respectively.
With `Cc1c(-c2[nH]c3sc(C4CCC(N(C)C(C)C)CC4)nc3c2C(C)C)cn2ncnc2c1C` (single isomer, unassigned) [Example 223, 4-(5-(7,8-dimethyl-[1,2,4]triazolo[1,5-a]pyridin-6-yl)-6-isopropyl-4H-pyrrolo[3,2-d]thiazol-2-yl)-N-isopropyl-N-methylcyclohexan-1-amine], the results for the half-maximal inhibitory concentration (IC50) in test [1], in test [2] and in test [3] were 0.0103 µM, 0.00865 µM and 14.3 µM, respectively.
Taken in the same sequence, the figures for `COc1cc(-c2[nH]c3sc(C4CCC(N5CC(O)(C(F)(F)F)C5)CC4)nc3c2C(C)C)cn2ncnc12` (single isomer, unassigned) [Example 119, 1-(4-(6-isopropyl-5-(8-methoxy-[1,2,4]triazolo[1,5-a]pyridin-6-yl)-4H-pyrrolo[3,2-d]thiazol-2-yl)cyclohexyl)-3-(trifluoromethyl)azetidin-3-ol] were 0.0542 µM, 0.00333 µM and over 50 µM.
Taken in the same sequence, the figures for `COc1cc(-c2[nH]c3sc(C4CCC(N5CCC6(CCNC6)C5)CC4)nc3c2C(C)C)cn2ncnc12` (single isomer, unassigned) [Example 115, 2-(4-(2,7-diazaspiro[4.4]nonan-2-yl)cyclohexyl)-6-isopropyl-5-(8-methoxy-[1,2,4]triazolo[1,5-a]pyridin-6-yl)-4H-pyrrolo[3,2-d]thiazole] were 0.017 µM, 0.0117 µM and 1.21 µM.
For `Cc1cc(-c2[nH]c3sc(C4CCC(NCC(C)(C)O)CC4)nc3c2C(C)C)cn2ncnc12` (single isomer, unassigned) [Example 140, 1-((4-(6-isopropyl-5-(8-methyl-[1,2,4]triazolo[1,5-a]pyridin-6-yl)-4H-pyrrolo[3,2-d]thiazol-2-yl)cyclohexyl)amino)-2-methylpropan-2-ol] the same measures were 0.00089 µM, 0.00059 µM and 10.4 µM.
In the case of `COc1cc(-c2[nH]c3sc(C4CCC(N5CCNC(=O)C5)CC4)nc3c2C(C)C)cn2ncnc12` (single isomer, unassigned) [Example 120, 4-(4-(6-isopropyl-5-(8-methoxy-[1,2,4]triazolo[1,5-a]pyridin-6-yl)-4H-pyrrolo[3,2-d]thiazol-2-yl)cyclohexyl) piperazin-2-one], the half-inhibitory concentration (IC50) in test [1] was 0.0167 µM; in test [2], 0.00419 µM; in test [3] it was over 50 µM.
Taken in the same sequence, the figures for `Cc1c(-c2[nH]c3sc(N4C[C@@H](C)N(C(C)C)C[C@@H]4C)nc3c2C(C)C)cn2ncnc2c1C` [Example 330, 5-(7,8-dimethyl-[1,2,4]triazolo[1,5-a]pyridin-6-yl)-6-isopropyl-2-((2S,5R)-4-isopropyl-2,5-dimethylpiperazin-1-yl)-4H-pyrrolo[3,2-d] thiazole] were 0.0015 µM, 0.00834 µM and 11.4 µM.
For `Cc1c(-c2[nH]c3sc(N4CC5(CN(CC6CCOCC6)C5)C4)nc3c2C(C)C)cn2ncnc2c1C` [Example 301, 5-(7,8-dimethyl-[1,2,4]triazolo[1,5-a]pyridin-6-yl)-6-isopropyl-2-(6-((tetrahydro-2H-pyran-4-yl)methyl)-2,6-diazaspiro[3.3]heptan-2-yl)-4H-pyrrolo[3,2-d]thiazole] the same measures were 0.00153 µM, 0.00777 µM and 12.3 µM.
As for `Cc1c(-c2[nH]c3sc(C4CCC(N5CCNC(=O)C5)CC4)nc3c2C(C)C)cn2ncnc2c1C` (single isomer, unassigned) [Example 221, 4-(4-(5-(7,8-dimethyl-[1,2,4]triazolo[1,5-a]pyridin-6-yl)-6-isopropyl-4H-pyrrolo[3,2-d]thiazol-2-yl)cyclohexyl) piperazin-2-one], the IC50 in test [1] is 0.0333 µM; in test [2], 0.00308 µM; in test [3] it was over 50 µM.
For `CCN(C)C1CCC(c2nc3c(C(C)C)c(-c4cc(OC)c5ncnn5c4)[nH]c3s2)CC1` (single isomer, unassigned) [Example 72, N-ethyl-4-(6-isopropyl-5-(8-methoxy-[1,2,4]triazolo[1,5-a]pyridin-6-yl)-4H-pyrrolo[3,2-d]thiazol-2-yl)-N-methylcyclohexan-1-amine], the IC50 in test [1] is 0.00475 µM; in test [2], 0.00123 µM; in test [3], 7.22 µM.
